Measurements taken from patent US8461146B2, “Pharmaceutical composition for the treatment of premature ejaculation” (priority 2008, dated 2013).
Entries after “also recorded” stand apart in the source; their conditions may differ.

Experiments:
[1] = tested on: sexually active male Crl:CD (SD) rats; assay: Pharmacological effect evaluation (rats): copulatory behavior test, ejaculation latency time; format: in vivo; settings: single drugs and double-drug combinations, C 2.70, S 6.02, F 2.41 mg/kg; for Ejaculation latency time, mean ± S.E.M.: single oral, test 3 h after dosing; for Increasing rate of ELT: vs negative control
Method: According to the method of Brain Res Brain Res Protoc, 1997, (1):203-9, this experiment was executed by employing male and female Crl:CD (SD) rats above 20 weeks old as test animals.
The female rats were anesthetized by the intraperitoneal injection of combination of ketamine 75 mg/kg and xylazine 25 mg/kg. After performing laparotomy, the ovaries were removed and peritoneal wall was closed with sutures. 2 ml of 10% ampicillin was injected intraperitoneally and the female rats had recovery period of 7 days. Ovariectomied females were brought into artificial estrus by subcutaneous injection of 20 μg/rat of estradiol benzoate, dissolved in 0.2 ml of sesame oil, about 52 hours before the administration of a test compound, followed by s.c injection of 1 mg/rat of progestrerone, dissolved in 0.2 ml of sesame oil, about 4 hours before the administration of a test compound.
Screening test was performed in an observation cage (60×40×30 cm) with plexiglass front. Before screening test, the male rats were allowed to adapt to the observation cage for 10 minutes and then the female rats with artificial estrus were brought into the cage. If male rats had ejaculated within 30 minutes, they were regarded as sexually active ones. Selected male rats went through copulatory experience for 5 times at 3 days intervals.
The experienced males were divided into 15 groups of about 10 animals so that the mean ejaculation latency time (ELT) of groups are similar. Test compound was single orally administered.
Group 1 as a negative control was administered with 0.5% methylcellulose 1500 (Sigma Co., hereinafter as “MC 1500”). […] Groups 5˜7 were administered with double-drug combinations. Groups 8˜15 were administered with triple-drug combinations having various doses. Detailed doses are represented in Table 2 below.
After 2 hours and 50 minutes from the administration of test compounds, the male rats were allowed to adapt to the observation cage for 10 minutes. Then copulatory behavior test was initiated with the introduction of female rats with artificial estrus into the observation cage. The ejaculation latency time (ELT) as the time from the first intromission until the ejaculation was evaluated.

[2] = tested on: Patients with premature ejaculation of 60 seconds or less; assay: Clinical study: treatment effect in patients with premature ejaculation; format: in vivo, human; settings: sertraline 50.0 mg, fluoxetine 20.0 mg, triple C 7.5 + S 11.3 + F 5.9 mg, 3 weeks; for Patient no. with ELT of 10 min or over: of 20 patients per group, daily dose clomipramine 22.4 mg, 3 hours before intercourse; for Treatment effect: share of 20 patients with ELT 10 min or more, clomipramine 22.4 mg
Method: (§1) Patients with premature ejaculation of 60 seconds or less were divided into 4 groups of twenty people. […] A dose was taken 3 hours before the sexual intercourse begins, and the administration period was for 3 weeks. The effect of the administration of the drugs to the patients examined through interviews with the patients. A drug was determined as effective when the patient's ejaculation latency time had been 10 minutes or more.

[3] = rat, in vivo, po
Method: Rats were supplemented with about 200 μl of heparinized saline (20 IU/ml) at each sampling times.
The maximum plasma concentration (Cmax) and the time to reach Cmax (Tmax) were obtained from the plasma concentration-time curve. The area under the plasma concentration-time curve (AUC) was calculated by using the trapezoidal rule.

[4] = tested on: premature ejaculation patients; settings: clomipramine 25 mg or 50 mg per day; sertraline 50 mg to 200 mg per day; fluoxetine 40 mg; cited from earlier work
[5] = clomipramine 50 mg; sertraline 50 mg to 200 mg per day; fluoxetine 40 mg and another report; cited from earlier work
[6] = Side effect evaluation, clinical study (nausea); format: in vivo, human; settings: sertraline 50.0 mg, triple C 7.5 + S 11.3 + F 5.9 mg
Method: as §1, with “patients.” for “patients. A drug was determined as effective when the patient's ejaculation latency time had been 10 minutes or more.”
A side effect incidence rate of nausea was investigated among patients who took each drug in Example 4.

[7] = Side effect evaluation, clinical study (sedation); format: in vivo, human; settings: clomipramine 22.4 mg, triple C 7.5 + S 11.3 + F 5.9 mg
Method: as §1, with “patients.” for “patients. A drug was determined as effective when the patient's ejaculation latency time had been 10 minutes or more.”
A side effect incidence rate of sedation was investigated among patients who took each drug in Example 4.

Row | Cmax and AUC after triple-drug combination compared with single drug administration (in words) [3] | Compound | Ejaculation latency time, mean ± S.E.M. [1] [s] | Increasing rate of ELT [1] [%] | Patient no. with ELT of 10 min or over [2] | Treatment effect [2] | Ejaculation delay effect (literature) [4] | Side effects (literature) [5] | Treatment effect ([2]; listed as sertraline) | Incidence rate of nausea ([6]; 20 patients) [%] | No. of nausea ([6]; of 20 patients) | Incidence rate of sedation ([7]; 20 patients) [%] | No. of sedation ([7]; of 20 patients)
1 | increases in Cmax and AUC | CNCCC(Oc1ccc(C(F)(F)F)cc1)c1ccccc1 (centres unmarked) [Fluoxetine, fluoxetine] | 141.3 ± 51.2 | −31.7 | 0 | the curative effect did not show up | the ejaculation delay effect was weak | drowsiness, dry-mouth, nausea, vomiting; also recorded: nausea, headache, and insomnia | – | – | – | – | –
2 | only AUC increased significantly | CN[C@H]1CC[C@@H](c2ccc(Cl)c(Cl)c2)c2ccccc21 [Sertraline, sertraline] | – | – | 8 | 40% | the ejaculation was delayed | nausea, vomiting | about 40% | 90 | 18 | – | –
3 | – | CN(C)CCCN1c2ccccc2CCc2ccc(Cl)cc21 [Clomipramine, clomipramine] | 177.2 ± 47.6 | −14.3 | 15 | 75% | ejaculation latency effect; also recorded: ejaculation was delayed | constipation, dry-mouth, nausea, drowsiness, headache and dizziness | – | – | – | 70 | 14
